Laboratory results: patent US20240024402A1, “COMPOSITION FOR IMPROVING INSULIN SENSITIVITY, CONTAINING GENTIANA TRIFLORAL PALLAS EXTRACT” (MTHERA PHARMA CO., LTD., priority 2020, published 2024)

System: ogt mRNA
Test: ogt mRNA expression in HepG2 cells cultured with glucose, MGO and other sugars/aldehydes
Type: cell-based
Conditions: MGO, 24 hours
Protocol: The HepG2 cells were cultured in a cell culture medium containing glucose, fructose, methylglyoxal (MGO), glyoxal (GO), glyceraldehyde 3-phosphate (G3P), glyceraldehyde, and glycolaldehyde for 24 hours, respectively, and the expression level of ogt mRNA was measured and shown in FIG. 5.

CC(=O)C=O [MGO, methylglyoxal]
ogt mRNA expression compared to the control group: increased nearly twice
